Data as given in patent US20040087653A1, “Methods for the treatment of respiratory diseases and conditions with a selective iNOS inhibitor and a PDE inhibitor and compositions therefor” (priority 2002, published 2004).
Structures can show the parent of a compound that is named as a salt.

How the values were obtained:
[1] = Clinical study: tolerability, FEV1, blood pressure, heart rate, laboratory parameters; assay type: in vivo, human; conditions: single oral dose
Procedure: (§1) A single center study was performed at the National Heart and Lung Institute (NHLI) Clinical Studies Unit in London, UK. The clinical protocol was submitted and accepted by the Ethics Committee of the Royal Brompton Hospital Trust, and the study was carried out according to Good Clinical Practice standards. Each subject provided written informed consent.
(§2) Twenty-four, adult, healthy volunteers and 24 patients with mild asthma participated in this study. All subjects were lifelong non-smokers. Asthma patients (n=24) had mild asthma according to American Thoracic Society Criteria, with medication on an as required basis with inhaled albuterol only. […] All asthmatic patients had baseline exhaled breath NO levels of >15 parts per billion (ppb). Healthy control (n=24) subjects were matched for age and sex, and had no clinically significant disease. Healthy subjects were required to have baseline exhaled NO levels between 4 and 9 ppb.
(§3) The study included 2 panels of healthy volunteers and asthmatic patients who received in a double-blind, randomized manner, a single dose of oral compound NN or placebo. The study was carried out in two phases according to the dose of compound NN under investigation. The first panel consisted of patients with mild-to-moderate asthma (n=12) and healthy subjects (n=12) who received single doses of 20 mg of compound NN and placebo, while the second panel of mild-to-moderate asthmatics (n=12) and healthy subjects (n=12) received single doses of 200 mg of compound NN and placebo. No patient or subject participated in both panels of this study. Evaluation of the first panel was completed before moving on to the second panel. The study evaluated the tolerability and pharmacokinetics of orally-administered compound NN and monitored levels of exhaled breath NO.
Forced expiratory volume in 1 sec (FEV1) and heart rate data had no significant deviations from normality using the Shapiro-Wilks test, therefore parametric statistical methods were used, and the significance of the change from baseline was tested using a paired […]. […]

i-NOS = i-NOS (Homo sapiens, UniProt P35228); assay: i-NOS inhibition, comparison with NIL amides
Sequence of i-NOS (P35228 whole entry): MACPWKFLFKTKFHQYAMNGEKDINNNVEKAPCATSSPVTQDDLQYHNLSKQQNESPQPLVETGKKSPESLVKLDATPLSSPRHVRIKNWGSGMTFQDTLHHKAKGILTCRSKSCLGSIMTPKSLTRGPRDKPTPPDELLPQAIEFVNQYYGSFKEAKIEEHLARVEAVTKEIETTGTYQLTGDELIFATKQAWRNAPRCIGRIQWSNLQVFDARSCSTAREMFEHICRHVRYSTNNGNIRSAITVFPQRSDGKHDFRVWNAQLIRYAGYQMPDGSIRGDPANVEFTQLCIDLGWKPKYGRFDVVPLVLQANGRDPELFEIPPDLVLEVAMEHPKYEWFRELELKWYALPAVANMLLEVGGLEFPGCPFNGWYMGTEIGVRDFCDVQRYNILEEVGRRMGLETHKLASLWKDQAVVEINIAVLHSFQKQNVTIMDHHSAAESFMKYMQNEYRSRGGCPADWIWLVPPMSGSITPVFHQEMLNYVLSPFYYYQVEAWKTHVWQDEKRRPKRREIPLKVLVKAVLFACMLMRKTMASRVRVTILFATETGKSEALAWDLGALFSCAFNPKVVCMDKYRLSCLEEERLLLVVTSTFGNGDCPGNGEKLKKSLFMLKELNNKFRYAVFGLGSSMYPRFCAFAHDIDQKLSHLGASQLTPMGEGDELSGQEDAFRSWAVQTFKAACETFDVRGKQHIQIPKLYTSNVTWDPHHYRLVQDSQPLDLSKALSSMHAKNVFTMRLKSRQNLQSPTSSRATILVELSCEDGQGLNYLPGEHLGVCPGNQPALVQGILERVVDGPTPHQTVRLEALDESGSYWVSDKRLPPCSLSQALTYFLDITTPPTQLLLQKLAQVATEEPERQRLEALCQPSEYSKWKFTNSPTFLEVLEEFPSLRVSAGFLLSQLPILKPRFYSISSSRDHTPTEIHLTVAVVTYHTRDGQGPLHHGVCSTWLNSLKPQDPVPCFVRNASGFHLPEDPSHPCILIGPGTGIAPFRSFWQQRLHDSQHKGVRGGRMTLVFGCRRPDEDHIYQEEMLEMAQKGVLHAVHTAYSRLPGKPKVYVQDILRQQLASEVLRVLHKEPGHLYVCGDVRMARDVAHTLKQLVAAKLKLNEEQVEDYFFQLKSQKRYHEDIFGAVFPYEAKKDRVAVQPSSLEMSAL

[2] = tested on: exhaled breath nitric oxide (NO); assay: Clinical study: exhaled breath NO after single oral dose; assay type: in vivo, human
Procedure: as §1, §2, §3
Measurement of exhaled NO: Exhaled NO was measured using a chemoluminescence analyzer (Logan 2000, Rochester, UK) and methods in accordance with International Guidelines. The analyser was calibrated daily using a certified NO mixture of 50 to 200 ppb (BOC Special gases, Guildford, UK) and ambient air NO recordings made on an hourly basis. Subjects were asked to refrain from strenuous exercise before any measurement. Each subject was seated for at least 5 minutes before any measurement was taken and remained seated throughout the procedure. […] Two successive recordings were taken, and the average value was calculated.
Statistical methods for clinical data: Exhaled NO data, including change from baseline and the percentage change, were tested for normality using the Shapiro-Wilks test. […] The area under the curve (AUC) for the change from baseline and the percentage change, and the differences between active and placebo were calculated. […]

[3] = target: T1, human endothelial constitutive NOS (hecNOS) (Homo sapiens, UniProt P29474); assay: Citrulline assay for nitric oxide synthase, hecNOS; assay type: biochemical; conditions: averages across all experiments and all lots; 30 μM L-arginine
T1 construct: made in house; host or cells: Sf9 insect cells, baculovirus vector
Description: Nitric oxide synthase (NOS) activity can be measured by monitoring the conversion of L-[2,3-^3H]-arginine to L-[2,3-^3H]-citrulline (Bredt and Snyder, Proc. Natl. Acad. Sci. U.S.A., 87, 682-685, 1990 and Moore et al, J. Med. Chem., 39, 669-672, 1996). Human inducible NOS (hiNOS), human endothelial constitutive_NOS (hecNOS) and human neuronal constitutive NOS (hncNOS) are each cloned from RNA extracted from human tissue. The cDNA for human inducible NOS (hiNOS) is isolated from a λcDNA library made from RNA extracted from a colon sample from a patient with ulcerative colitis. The cDNA for human endothelial constitutive NOS (hecNOS) is isolated from a λcDNA library made from RNA extracted from human umbilical vein endothelial cells (HUVEC) and the cDNA for human neuronal constitutive NOS (hncNOS) is isolated from a λcDNA library made from RNA extracted from human cerebellum obtained from a cadaver. The recombinant enzymes are expressed in Sf9 insect cells using a baculovirus vector (Rodi et al, in The Biology of Nitric Oxide, Pt. 4: Enzymology, Biochemistry and Immunology; Moncada, S., Feelisch, M., Busse, R., Higgs, E., Eds.; Portland Press Ltd.: London, 1995; pp 447-450). […] After mixing the resin is allowed to settle and L-[2,3-^3H]-Citrulline formation is determined by counting aliquots of the supernatant with a liquid scintillation counter. […]

[4] = healthy volunteers and asthmatics

Q: Which “effect on haematology or blood biochemistry” value [1] does the source give for `CC(=N)NCCCC[C@H](N)C(=O)Nc1nnn[nH]1` [Example NN, 2S-amino-6-[(1-iminoethyl)amino]-N-(1H-tetrazol-5-yl)hexanamide, hydrate, dihydrochloride] here?
A: no effect

Q: What about the “effects on heart rate, blood pressure and FEV1” value [1] of the same molecule?
A: no apparent effects

Q: And the tolerability [1, 4]?
A: well tolerated

Q: What about the “i-NOS inhibitory potency compared with NIL amide or NIL dimethylamide” value (i-NOS) of the same molecule?
A: more potent i-NOS inhibitor

Q: And the “inhibition of exhaled NO in asthma” value ([2]; 200 mg single oral dose)?
A: 95%

Q: What about the “residual exhaled NO” value [2, 4] of the same molecule?
A: < 1 ppb

Q: What about the “change in exhaled NO” value ([2]; single oral dose 20 mg or 200 mg, healthy volunteers and asthmatics, 72 hour assessment) of the same molecule?
A: rapid reduction in exhaled NO

Q: And the “duration of the decrease in exhaled breath NO” value ([2]; single oral dose, healthy volunteers and asthmatics)?
A: 3 days

Q: And the IC50 [3]?
A: 2420 µM
